According to patent publication US10112937B2, “P2X7 modulators and methods of use” (Janssen Pharmaceutica NV, priority 2013, dated 2018):

Target: human P2X7 (Homo sapiens (Human), UniProt Q99572)
Assay: P2X7 antagonism in human PBMCs (IL-1β release after LPS + Bz-ATP, ELISA)
Format: cell-based
Details: 10 μM test compound, human PBMCs, LPS + Bz-ATP

Chain of human P2X7 (Q99572 whole entry): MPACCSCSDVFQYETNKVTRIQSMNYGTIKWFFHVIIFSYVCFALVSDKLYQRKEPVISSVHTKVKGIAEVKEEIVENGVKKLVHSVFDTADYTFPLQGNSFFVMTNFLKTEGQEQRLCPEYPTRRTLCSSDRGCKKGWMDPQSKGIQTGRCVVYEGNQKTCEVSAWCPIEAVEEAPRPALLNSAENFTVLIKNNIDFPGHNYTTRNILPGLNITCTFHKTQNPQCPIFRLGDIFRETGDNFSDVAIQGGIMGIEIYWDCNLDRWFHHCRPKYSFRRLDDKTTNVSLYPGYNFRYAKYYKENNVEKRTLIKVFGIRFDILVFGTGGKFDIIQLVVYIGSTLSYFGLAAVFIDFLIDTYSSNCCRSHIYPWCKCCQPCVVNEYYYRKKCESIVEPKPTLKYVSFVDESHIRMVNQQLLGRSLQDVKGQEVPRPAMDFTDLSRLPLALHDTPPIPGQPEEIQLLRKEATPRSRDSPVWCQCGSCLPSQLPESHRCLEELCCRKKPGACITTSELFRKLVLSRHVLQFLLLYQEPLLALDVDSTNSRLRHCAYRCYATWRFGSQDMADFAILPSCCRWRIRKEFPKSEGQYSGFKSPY

Question: With `CCn1ccc(-n2nnc3c2C[C@H](C)N(C(=O)c2ccnc(C(F)(F)F)c2Cl)C3)n1` [Example 410, (S)-(3-chloro-2-(trifluoromethyl)pyridin-4-yl)(1-(1-ethyl-1H-pyrazol-3-yl)-6-methyl-6,7-dihydro-1H-[1,2,3]triazolo[4,5-c]pyridin-5(4H)-yl)methanone] as the compound, how does the “PBMC 10 μM (% control)” value read?
Answer: −1.5 % control

Question: With `CCn1nccc1-n1nnc2c1CCN(C(=O)c1cccc(C(F)(F)F)c1Cl)[C@H]2C` [Example 407, (S)-(2-chloro-3-(trifluoromethyl)phenyl)(1-(1-ethyl-1H-pyrazol-5-yl)-4-methyl-6,7-dihydro-1H-[1,2,3]triazolo[4,5-c]pyridin-5(4H)-yl)methanone] as the compound, how does the “PBMC 10 μM (% control)” value read?
Answer: 77.4 % control

Question: For `CC(C)n1ccc(-n2nnc3c2C[C@H](C)N(C(=O)c2ccnc(C(F)(F)F)c2F)C3)n1` [Example 418, (S)-(3-fluoro-2-(trifluoromethyl)pyridin-4-yl)(1-(1-isopropyl-1H-pyrazol-3-yl)-6-methyl-6,7-dihydro-1H-[1,2,3]triazolo[4,5-c]pyridin-5(4H)-yl)methanone], which “PBMC 10 μM (% control)” value is on record?
Answer: 97.6 % control

Question: Which “PBMC 10 μM (% control)” value does the source give for `CC(C)n1ccc(-n2nnc3c2CCN(C(=O)c2ccnc(C(F)(F)F)c2Cl)[C@H]3C)n1` [Example 417, (S)-(3-chloro-2-(trifluoromethyl)pyridin-4-yl)(1-(1-isopropyl-1H-pyrazol-3-yl)-4-methyl-6,7-dihydro-1H-[1,2,3]triazolo[4,5-c]pyridin-5(4H)-yl)methanone] here?
Answer: 112.2 % control

Same assay, conditions: human PBMCs, test compound 1 μM

Question: For `O=C(c1cccc(C(F)(F)F)c1Cl)N1C=Cc2c(nnn2-c2cnccn2)C1c1ccccc1` (centres unmarked) [Example 76, 5-{[2-Chloro-3-(trifluoromethyl)phenyl]carbonyl}-4-phenyl-1-pyrazin-2-yl-4,5-dihydro-1H-[1,2,3]triazolo[4,5-c]pyridine], which “PBMC 1 μM (% control)” value is on record?
Answer: 1.6 % control

Question: Which “PBMC 1 μM (% control)” value does the source give for `CC1c2ncn(-c3ccccn3)c2CCN1C(=O)c1cccc(C(F)(F)F)c1Cl` (centres unmarked) [Example 17, (2-Chloro-3-(trifluoromethyl)phenyl)(4-methyl-1-(pyridin-2-yl)-6,7-dihydro-1H-imidazo[4,5-c]pyridin-5(4H)-yl)methanone] here?
Answer: 6.5 % control

Same assay, conditions: human PBMCs, test compound 10 μM

Question: How did the “PBMC 10 μM (% control)” value turn out when `C[C@@H]1c2nnn(-c3cc(F)ccn3)c2CCN1C(=O)c1cccc(C(F)(F)F)c1Cl` (single isomer, unassigned) [Example 148, (R*)-(2-Chloro-3-(trifluoromethyl)phenyl)(1-(4-fluoropyridin-2-yl)-4-methyl-6,7-dihydro-1H-[1,2,3]triazolo[4,5-c]pyridin-5(4H)-yl)methanone] was run?
Answer: −9.6 % control

Question: How did the “PBMC 10 μM (% control)” value turn out when `C[C@@H]1Cc2c(nnn2-c2ncccc2F)CN1C(=O)c1cccc(C(F)(F)F)c1Cl` (single isomer, unassigned) [Example 167, (6R*)-5-{[2-Chloro-3-(trifluoromethyl)phenyl]carbonyl}-1-(3-fluoropyridin-2-yl)-6-methyl-4,5,6,7-tetrahydro-1H-[1,2,3]triazolo[4,5-c]pyridine] was run?
Answer: 4.2 % control

Question: How did the “PBMC 10 μM (% control)” value turn out when `CCOc1cccnc1-n1nnc2c1CCN(C(=O)c1cccc(C(F)(F)F)c1Cl)[C@H]2C` (single isomer, unassigned) [Example 317, (S*)-(2-chloro-3-(trifluoromethyl)phenyl)(1-(3-ethoxypyridin-2-yl)-4-methyl-6,7-dihydro-1H-[1,2,3]triazolo[4,5-c]pyridin-5(4H)-yl)methanone] was run?
Answer: 4.8 % control

Question: Which “PBMC 10 μM (% control)” value does the source give for `Cc1cccc(-n2nnc3c2CCN(C(=O)c2cccc(Cl)c2Cl)C3C)n1` (centres unmarked) [Example 233, (2,3-dichlorophenyl)(4-methyl-1-(6-methylpyridin-2-yl)-6,7-dihydro-1H-[1,2,3]triazolo[4,5-c]pyridin-5(4H)-yl)methanone] here?
Answer: −0.1 % control

Question: `CC1c2nn(COCC[Si](C)(C)C)c(-c3ncc(F)cn3)c2CCN1C(=O)c1cccc(C(F)(F)F)c1Cl` (centres unmarked) [Example 303, (2-chloro-3-(trifluoromethyl)phenyl)(3-(5-fluoropyrimidin-2-yl)-7-methyl-2-((2-(trimethylsilyl)ethoxy)methyl)-4,5-dihydro-2H-pyrazolo[3,4-c]pyridin-6(7H)-yl)methanone] was tested. Which “PBMC 10 μM (% control)” value did it give?
Answer: −1.6 % control

Question: `C[C@H]1Cc2c(nnn2-c2ncccc2F)CN1C(=O)c1cccc(C(F)(F)F)c1Cl` (single isomer, unassigned) [Example 168, (6S*)-5-{[2-Chloro-3-(trifluoromethyl)phenyl]carbonyl}-1-(3-fluoropyridin-2-yl)-6-methyl-4,5,6,7-tetrahydro-1H-[1,2,3]triazolo[4,5-c]pyridine] was tested. Which “PBMC 10 μM (% control)” value did it give?
Answer: −4.2 % control

Question: Which “PBMC 10 μM (% control)” value does the source give for `C[C@@H]1c2nnn(-c3ncc(F)cn3)c2CCN1C(=O)c1cccc(C(F)(F)F)c1F` (single isomer, unassigned) [Example 190, (R*)-(2-fluoro-3-(trifluoromethyl)phenyl)(1-(5-fluoropyrimidin-2-yl)-4-methyl-6,7-dihydro-1H-[1,2,3]triazolo[4,5-c]pyridin-5(4H)-yl)methanone] here?
Answer: 7.1 % control

Question: With `Cc1cccc(-n2nnc3c2CCN(C(=O)c2cccc(Cl)c2Cl)[C@@H]3C)n1` (single isomer, unassigned) [Example 389, (R*)-(2,3-dichlorophenyl)(4-methyl-1-(6-methylpyridin-2-yl)-6,7-dihydro-1H-[1,2,3]triazolo[4,5-c]pyridin-5(4H)-yl)methanone] as the compound, how does the “PBMC 10 μM (% control)” value read?
Answer: 88.9 % control

Question: Which “PBMC 10 μM (% control)” value does the source give for `C[C@H]1c2ncn(-c3ccccn3)c2CCN1C(=O)c1cccc(Cl)c1Cl` (single isomer, unassigned) [Example 191, (S*)-(2,3-Dichlorophenyl)(4-methyl-1-(pyridin-2-yl)-6,7-dihydro-1H-imidazo[4,5-c]pyridin-5(4H)-yl)methanone] here?
Answer: 5.2 % control

Question: How did the “PBMC 10 μM (% control)” value turn out when `CC1c2nnn(-c3cnccn3)c2CCN1C(=O)c1cccc(C(F)(F)F)c1F` (centres unmarked) [Example 273, (2-fluoro-3-(trifluoromethyl)phenyl)(4-methyl-1-(pyrazin-2-yl)-6,7-dihydro-1H-[1,2,3]triazolo[4,5-c]pyridin-5(4H)-yl)methanone] was run?
Answer: −2.1 % control

Question: Which “PBMC 10 μM (% control)” value does the source give for `CC1Cc2c(nnn2-c2ncc(F)cn2)CN1C(=O)c1ccc(Cl)c(F)c1Cl` (centres unmarked) [Example 216, 5-[(2,4-Dichloro-3-fluorophenyl)carbonyl]-1-(5-fluoropyrimidin-2-yl)-6-methyl-4,5,6,7-tetrahydro-1H-[1,2,3]triazolo[4,5-c]pyridine] here?
Answer: 0.6 % control

Question: Which “PBMC 10 μM (% control)” value does the source give for `Cc1ccnc(-n2nnc3c2CCN(C(=O)c2ccnc(C(F)(F)F)c2Cl)[C@H]3C)c1` (single isomer, unassigned) [Example 360, (S*)-(3-chloro-2-(trifluoromethyl)pyridin-4-yl)(4-methyl-1-(4-methylpyridin-2-yl)-6,7-dihydro-1H-[1,2,3]triazolo[4,5-c]pyridin-5(4H)-yl)methanone] here?
Answer: −7.1 % control

Question: How did the “PBMC 10 μM (% control)” value turn out when `C[C@H]1Cc2c(nnn2-c2ncccc2F)CN1C(=O)c1cccc(Cl)c1Cl` (single isomer, unassigned) [Example 166, (6S*)-5-[(2,3-Dichlorophenyl)carbonyl]-1-(3-fluoropyridin-2-yl)-6-methyl-4,5,6,7-tetrahydro-1H-[1,2,3]triazolo[4,5-c]pyridine] was run?
Answer: 0.6 % control

Question: `Cc1cc(C)nc(-n2nnc3c2CCN(C(=O)c2cccc(Cl)c2Cl)C3C)n1` (centres unmarked) [Example 179, (2,3-dichlorophenyl)(1-(4,6-dimethylpyrimidin-2-yl)-4-methyl-6,7-dihydro-1H-[1,2,3]triazolo[4,5-c]pyridin-5(4H)-yl)methanone] was tested. Which “PBMC 10 μM (% control)” value did it give?
Answer: −4.3 % control
